# Results as given in PMC4697807, “Novel Zn^2+ Modulated GPR39 Receptor Agonists Do Not Drive Acute Insulin Secretion in Rodents” (PLoS ONE, 2015).
# Like-named read-outs stand apart in the source and are kept apart here.
# How the values were obtained:
# [1] = molecular target: T1, GPR39 (Homo sapiens, UniProt O43194); assay: Dynamic mass redistribution (DMR) label-free assay, HEK293s-hGPR39 cells; type: cell-based; parameters: Full length human (AF034633), rat (DM091294) and mouse (BC085285) GPR39; expressed in transfected cells; host or cells: HEK293s (ATCC CRL-1573), pIRESneo3 vector, selected clones; settings: for Efficacy at 33 μM: AZ1395 100% reference
# T1 sequence (O43194 1-453): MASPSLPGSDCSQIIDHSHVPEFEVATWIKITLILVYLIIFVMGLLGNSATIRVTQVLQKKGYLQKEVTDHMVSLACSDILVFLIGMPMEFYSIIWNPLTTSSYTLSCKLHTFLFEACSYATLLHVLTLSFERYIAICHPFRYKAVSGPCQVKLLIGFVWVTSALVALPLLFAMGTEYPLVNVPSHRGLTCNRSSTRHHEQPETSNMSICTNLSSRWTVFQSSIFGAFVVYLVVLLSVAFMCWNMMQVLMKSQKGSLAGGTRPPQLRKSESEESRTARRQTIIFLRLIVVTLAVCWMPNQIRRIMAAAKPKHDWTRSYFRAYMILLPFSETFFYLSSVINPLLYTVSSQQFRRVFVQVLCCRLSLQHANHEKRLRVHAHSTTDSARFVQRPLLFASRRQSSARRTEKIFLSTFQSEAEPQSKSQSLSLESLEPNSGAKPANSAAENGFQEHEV
# From the text: Full length human (AF034633), rat (DM091294) and mouse (BC085285) GPR39 (GeneArt–Life Technologies, Carlsbad, CA) were subcloned into the pIRESneo3 vector (Clontech, Mountain View, CA). The resulting expression vectors hGPR39-, rGPR39- and mGPR39-pIRESneo3 were transfected into HEK293s cells (ATCC CRL-1573) using Lipofectamine 2000 (Life Technologies). Individual clones were isolated using flow cytometry with a FACSVantage SE DIVA (Becton Dickinson, Franklin Lakes, NJ) and clones were chosen based on responses to Zn^2+ measured in a cAMP assay (see below). […] HEK293s-derived cell lines were cultured at 37°C, 10% CO2 and 95% humidity in DMEM supplemented with 10% FBS and 600 μg/ml Geneticin (Life Technologies). The mouse pancreas epithelial cell line NIT-1 (ATCC CRL-2055) with endogenous expression of GPR39 was cultured at 37°C, 5% CO2, and 95% humidity in Ham´s F12 (Life Technologies) supplemented with 10% FBS.
# (§1) DMR assays were performed using an Epic instrument (Corning Inc., Corning, NY). 12,000 cells per well were cultured for 24 h in 384-well fibronectin-coated Epic biosensor plates (Corning). On the day of experiment, culture medium was removed and replaced with 30 μl buffer A (HBSS, HEPES 20 mM pH7.4, 1% DMSO, 0.01% BSA) using an EL406 (Bio-Tek). Plates were incubated at 26 °C for 1 h inside the Epic to allow for temperature equilibration. A baseline was read for 2 min, and then 15 μl compounds in buffer A were added using a CyBi-Well vario (CyBio) and DMR was detected during 45 min.
# Concentration response data were fitted with a four parameter logistic fit using Eq 1, y=A+((B−A)/1+((C/x)^D))) (1) where A is no activation, B is full activation, C is the EC50 and D is the Hill slope.
# [2] = molecular target: T1, GPR39; assay: Back-scattering interferometry (BSI) binding assay, HEK293s-hGPR39 membranes; parameters: Full length human (AF034633), rat (DM091294) and mouse (BC085285) GPR39; expressed in transfected cells; host or cells: HEK293s (ATCC CRL-1573), pIRESneo3 vector, selected clones
# Experimental: Membranes (1.3 mg protein/ml) from HEK293s-hGPR39 and untransfected HEK293s cells were diluted 11-fold in 50 mM Tris, pH 7.5, 5 μM ZnCl2, 0.3% DMSO. The compounds were diluted from 10 mM in DMSO to the final maximum stock concentration of 30 μM with 50 mM Tris, pH 7.5, 5 μM ZnCl2, 24.6 mM sucrose. A 3-fold serial dilution was performed with the compounds and refractive index-matched assay buffer, 50 mM Tris, pH 7.5, 5 μM ZnCl2, 24.6 mM sucrose, 0.3% DMSO. The compound serial dilutions were mixed 1:1 with either the GPR39 or wild type membrane fractions in a 96-well polypropylene microplate (Eppendorf, Hauppauge, NY). After a 2 hour incubation at room temperature, the plate was analyzed on a pre-commercial prototype BSI instrument (Molecular Sensing, Inc., Nashville, TN). Binding signal was expressed as the phase shift in the interference fringe patterns on a CMOS camera as measured in milliradians. The data from the wild type membrane fractions was subtracted from the GPR39-expressing fractions point by point to obtain the specific binding interaction of the compounds with GPR39 and fit to one-site binding or two-site binding models using built-in models in Graphpad Prism to determine K D values for each compound.
# [3] = molecular target: T1, GPR39; assay: DMR positive allosteric modulator (PAM) experiments, compound and Zn^2+ interdependencies; type: cell-based; parameters: Full length human (AF034633), rat (DM091294) and mouse (BC085285) GPR39; expressed in transfected cells
# Experimental: as §1
# Concentration response curves for the interaction between ortosteric and allosteric ligands in the DNR assay were globally fitted to the operational model of allosterism and agonism as described in Leach et al.. Binding data were fitted using one site or two site binding models.
# Utilizing the DMR platform, positive allosteric modulator (PAM) experiments were performed in order to more accurately determine the influences of Zn^2+ on the three compounds, see Fig 4. Compound dose responses were generated at 10 different Zn^2+ concentrations, spanning 0 to 30 μM. The presence of Zn^2+ increased potencies of compounds up to 10000-fold. Data were initially globally fitted to the operational model of allosterism and agonism described by Leach et al. However, fits obtained were not of sufficient quality. We therefore decided to calculate modulation in a more simplistic way, here called PAM EC50 and defined as the concentration of modulator (Zn^2+) causing half maximum potentiation of agonist potency.
# [4] = presence of 5 μM Zn^2+, read-out: pEC50 ± SD (converted)
# [5] = presence of 5 μM Zn^2+, one site binding model, read-out: K D ± SE
# [6] = absence (w/o) of Zn^2+, read-out: EC50
# [7] = Zn^2+ binding, two site binding model
SMILES,"EC50 [1, 4] [nM]","Kd [2, 5] [nM]",EC50 ([3]; [Zn2+] μM: 0) [µM],EC50 ([3]; [Zn2+] μM: 1e-7) [µM],EC50 ([3]; [Zn2+] μM: 5e-7) [µM],EC50 ([3]; [Zn2+] μM: 1e-6) [µM],EC50 ([3]; [Zn2+] μM: 5e-6) [µM],EC50 ([3]; [Zn2+] μM: 7e-6) [µM],EC50 ([3]; [Zn2+] μM: 1e-5) [µM],EC50 ([3]; [Zn2+] μM: 2e-5) [µM],EC50 ([3]; [Zn2+] μM: 3e-5) [µM],EC50 ([3]; [Zn2+] μM: 3) [µM],Efficacy at 33 μM ([1]; absence (w/o) of Zn^2+) [%],"EC50 [1, 6] [nM]",also measured
"N#Cc1ccc(OCCn2ccnc2)c(OCCn2ccnc2)c1 [AZ1395, 3,4-bis-(2-imidazol-1-ylethoxy)-benzonitrile]",35.5,233 ± 70,3,2.6,2.4,1.7,0.057,0.015,0.014,0.0035,0.0027,0.16,–,–,"EC50 ([1]; absence (w/o) of Zn^2+, read-out: pEC50 ± SD (converted)): 2290 nM; EC50 ([1]; presence of 5 μM Zn^2+, read-out: EC50): 36 nM; Emax ([3]; in the absence of Zn^2+): ~75%"
"Cc1nc2c(C(=O)O)cnn2c(O)c1Cc1ccc(Cl)cc1 [AZ4237, 6-[(4-chlorophenyl)methyl]-7-hydroxy-5-methyl-pyrazolo[1,5-a]pyrimidine-3-carboxylic acid]",191,48 ± 18,> 33,> 33,> 33,8.3,0.058,0.045,0.015,0.0074,0.003,0.58,20,> 33000,–
"Cc1nc(-c2nc3c(c(=O)[nH]2)CN(C(=O)c2cccc(Cl)c2F)CC3)cs1 [AZ7914, 6-(3-chloro-2-fluoro-benzoyl)-2-(2-methylthiazol-4-yl)-3,5,7,8-tetrahydropyrido-[4,3-d]pyrimidin-4-one]",102,192 ± 85,> 33,> 33,> 33,> 33,0.29,0.09,0.042,0.0095,0.0063,1.6,39,> 33000,–
[Zn+2] [Zn^2+],–,–,–,–,–,–,–,–,–,–,–,–,–,–,"Emax relative to the 100% efficacy reference AZ1395 ([1]; Zn^2+ by itself): ~35%; pEC50 ± SD ([1]; Zn^2+ by itself): (4.87 ± 0.05); EC50 ([1]; Zn^2+ by itself, read-out: EC50): 13000 nM; pK D1 (high affinity site) [2, 7]: 6.27; pK D2 (low affinity site) [2, 7]: 3.68; Kd ([2]; Zn^2+ binding, two site binding model, read-out: K D1 (high affinity site) ± SE): 530 nM; Kd ([2]; Zn^2+ binding, two site binding model, read-out: K D2 (low affinity site) ± SE): 211000 nM; Emax for Zn^2+ alone, of Emax for Zn^2+ together with any of the GPR39 agonists ([3]; Zn^2+ alone): approximately 35%"
